Experiment [1] concerns IL-1β levels in the peritoneal fluid, carrageenan-challenged mice. Nature of the experiment: Mouse carrageenan peritoneal inflammation. The note with it: oral administration; 214e at 50 mg/kg; result in words. Format: in vivo. The method, then: Mouse Carrageenan Peritoneal Inflammation
Inflammation was induced in mice with an intraperitoneal (IP) injection of 10 mg carrageenan in 0.5 ml of saline (Griswold et al., Inflammation, 13, pp. 727-739 (1989)). Drugs are administered by oral gavage in ethanol/PEG/water, β-cyclodextrin, labrosol/water or cremophor/water vehicle. The mice are sacrificed at 4 hours post carrageenan administration, then injected IP with 2 ml of saline containing 5 U/ml heparin. After gentle massage of the peritoneum, a small incision is made, the contents collected and volume recorded. Samples are kept on ice until centrifuged (130×g, 8 mins at 4° C.) to remove cellular material, and the resultant supernatant stored at −20° C. IL-1β levels in the peritoneal fluid are determined by ELISA.

The subject of experiment [2] is male DBA/1J mice, type II collagen-induced arthritis. Nature of the experiment: Type II collagen-induced arthritis. The format is in vivo, mouse. The note with it: oral gavage twice a day 10, 25 and 50 mg/kg (214e: 50 mg/kg once a day), Arthritis Severity Score, result in words. As to the method: Type II Collagen-Induced Arthritis
Type II collagen-induced arthritis was established in male DBA/1J mice at described Wooley and Geiger (Wooley, P. H., Methods in Enzymology, 162, pp. 361-373 (1988) and Geiger, T., Clinical and Experimental Rheumatology, 11, pp. 515-522 (1993)). Chick sternum Type II collagen ([…] in 10 mM acetic acid) was emulsified with an equal volume of Freund's complete adjuvant (FCA) by repeated passages (400) between two 10 ml glass syringes with a gauge 16 double-hub needle. Mice were immunized by intradermal injection (50 μl; […], CII per mouse) of collagen emulsion 21 days later at the contra-lateral side of the tail base. Drugs were administered twice a day (10, 25 and 50 mg/kg) by oral gavage approximately 7 h apart. Vehicles used included ethanol/PEG/water, β-cyclodextrin, labrosol/water or cremophor/water. Drug treatments were initiated within 2 h of the CII booster immunization. Inflammation was scored on a 1 to 4 scale of increasing severity on the two front paws and the scores are added to give the final score.

Another experiment concerns IL-1β, human PBMC. Nature of the experiment: Human PBMC assay (Example 27): IL-1β production. The format is cell-based. The note with it: Homo sapiens, PBMC; Table 22; read-out: Cell PBMC avg. IC50. As to the method:
Since the processing and secretion of biologically active IGIF is mediated by ICE, we compared the activity of a reversible ICE inhibitor (Ac-YVAD-CHO) on IL-1β and IFN-γ production in a peripheral blood mononuclear cell (PBMC) assay (Examples 27).
Human buffy coat cells were obtained from blood donors and peripheral blood mononuclear cells (PBMC) were isolated by centrifugation in LeukoPrep tubes (Becton-Dickinson, Lincoln Park, N.J.). PBMC were added (3×10^6/well) to 24 well Corning tissue culture plates and after 1 hr incubation at 37° C., non-adherent cells were removed by gently washing. Adherent mononuclear cells were stimulated with LPS (1 μg/ml) with or without ICE inhibitor in 2 ml RPMI-1640-10% FBS. After 16-18 hr incubation at 37° C., IGIF and IFN-γ were quantitated in culture supernatants by ELISA.

In the next experiment the target is T1, ICE (Homo sapiens, UniProt P29466).
T1 sequence (P29466 120-297 limits assumed): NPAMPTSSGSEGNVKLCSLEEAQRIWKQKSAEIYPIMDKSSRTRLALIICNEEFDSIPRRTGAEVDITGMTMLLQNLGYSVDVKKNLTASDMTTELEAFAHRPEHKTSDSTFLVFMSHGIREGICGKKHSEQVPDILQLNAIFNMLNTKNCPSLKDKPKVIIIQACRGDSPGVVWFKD
T1 sequence (P29466 317-404 limits assumed): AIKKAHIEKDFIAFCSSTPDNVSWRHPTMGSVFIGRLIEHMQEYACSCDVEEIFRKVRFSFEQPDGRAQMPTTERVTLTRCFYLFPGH
Nature of the experiment: Inhibition of IGIF processing by ICE inhibitors, measured in ICE inhibition assays (Example 27, Table 22). Format: biochemical. To be noted: read-out: UV-Visible Ki. The method, then: Inhibition of IGIF processing by ICE inhibitors was measured in ICE inhibition assays as described herein (see Example 1 and Table 22).

pIC50, pKi: −log10 of the molar value.

By pIC50 is commonly meant the IC50 on a negative log10 scale, so that one unit is a factor of ten. Usually pKi stands for the Ki on a negative log10 scale, so that one unit is a factor of ten.

As for `O=C[C@H](CC(=O)O)NC(=O)[C@@H]1CCCN2C(=O)CC[C@H](NC(=O)c3ccccc3)C(=O)N12` [Compound 214e, [3S(1S,9S)]3-(9-Benzoylamino-6,10-dioxo-1,2,3,4,7,8,9,10-octahydro-6H-pyridazino[1,2-a][1,2]-diazepine-1-carboxamido)-4-oxobutanoic acid], in experiment [1], the “inhibition of IL-1β production in carrageenan-challenged mice” value is reported as “did not inhibit IL-1β production”. Besides, in experiment [2], the “inhibition of inflammation / progression of type II collagen-induced arthritis” value is given as “did not inhibit inflammation”.

Regarding `O=C[C@H](CC(=O)O)NC(=O)[C@@H]1CCCN2C(=O)CC[C@H](NC(=O)c3nccc4ccccc34)C(=O)N12` [Compound 412, [3S(1S,9S)]3-[6,10-Dioxo-9-(isoquinolin-1-oylamino)-1,2,3,4,7,8,9,10-octahydro-6H-pyridazino[1,2-a][1,2]diazepine-1-carboxamido]-4-oxobutanoic acid], the pIC50 in the experiment with IL-1β, human PBMC is 6.24. The pKi at ICE was 8.89.
